Experimental data as given in patent publication US8258309B2, “Azapeptide derivatives” (priority 2007, dated 2012).

How the values were obtained:
[1] = Rat pharmacokinetics, intravenous and oral co-dosing of Compound 122 and atazanavir; format: in vivo; settings: male, Sprague-Dawley, plasma, rats, 1 mg/kg of each
Description: Rat Pharmacokinetics. […] Then the combo dose was prepared by mixing both by 1:1 to yield a final concentrations at 1 mg/mL for each compound (pH=5-6) for intravenous and oral administration. Male Sprague-Dawley rats (body weight: 170 g to 235 g) were used in this study. […] Blood samples (300 μL) were collected via the retro-orbital vein at pre-dose and 0.083, 0.25, 0.5, 1, 2, 4, 6, 8, 10, 12 and 24 hours post-dose. Blood samples were placed into heparinized eppendorf tubes (evaporated) and then centrifuged at 8000 rpm for 6 minutes. 100 μL aliquots of plasma were transferred to clean Eppendorf tubes and stored with the dose formulation at -20° C. until bioanalysis. For bioanalysis, plasma was thawed and added to it was 20 μL methanol and 500 μL of a 50 ng/ml internal standard solution (quetiapine in methanol). The sample was vortexed, centrifuged at 15,000 rpm for 5 minutes and the supernatant transferred to glass autosampler vials. Analyses of plasma samples were performed using a high performance liquid chromatography/mass spectrometry (HPLC/MS/MS) method. The LC system comprised an Agilent (Agilent Technologies Inc, USA) liquid chromatograph equipped with an isocratic pump (1100 series), an autosampler (1100 series) and a […]). Mass spectrometric analysis was performed using an API3000 (triple-quadrupole) instrument from AB Inc (Canada) with an ESI interface. The data acquisition and control system were created using Analyst 1.4 software from ABI Inc. Following intravenous co-administration of Compound 122 and atazanavir, atazanavir disappeared more rapidly from the blood.

[2] = Chimp pharmacokinetics Run A, IV or PO co-dosing of atazanavir and Compounds 114, 120, 122; format: in vivo, chimpanzee; settings: for concentration at 24 h: concentration detected intact in urine
Description: Chimp Pharmacokineties. Run A: A 4 mg/mL solution of atazanavir and each of Compounds 114, 120 and 122 were prepared in 10% DMI (dimethyl isosorbide), 15% EtOH, 35% PG in D5W. Specifically, for each compound, 240 mgs of compound was dissolved in a solution composed of 6 mL of DMI, 9 mL of EtOH and 21 mL PG. Once the compound was fully dissolved, 24 mL of D5W was added and the solution mixed.
Fifty-five mL of each drug solution is then combined and the mixture was sterile filtered using a 0.2 μm filter. This produced 220 mL of a 1:1:1:1 mixture atazanavir:Compound 114:Compound 120:Compound 122. The final concentration of each drug in the solution was 1 mg/mL. Each animal received 50 mL of this solution through either IV or PO routes.
Four chimps (two male and two female) were used in this study and were fasted overnight prior to administration of the compound solution. Animals were sedated with ketamine and/or telazol prior to dosing. Intravenous dosing was achieved by IV infusion over 30 minutes.
Approximately 4.5 mL of blood was collected into vacutainer tubes with sodium heparin as an anticoagulant at 0 (preinfusion), 15 min., 29.5 min (immediately before the end of the infusion), and then at 6, 15, 30, and 45 minutes, and 1, 2, 4, 6, 8, 10, 12, 24 hours after the infusion is stopped. A similar procedure was used to collect blood after oral dosing with samples taken at 0 (predose), 15, and 30 minutes, and at 1, 1.5, 2, 4, 6, 8, 10, 12, 24 hours postdose. Following sample collection, the vacutainer tubes were rocked by hand several times to insure adequate mixing. Blood samples were placed immediately on wet ice and centrifuged within 1 hour from time of collection. Following centrifugation, the resulting plasma was stored frozen at −70° C. until analysis. The results are summarized in FIGS. 4 and 5 and tables 6 and 7.

HIV-1RF = experiment: HIV anti-viral activity in CEM-SS cells infected with HIV-1 (XTT); format: cell-based
Description: The HIV antiviral activity of compound of the present invention was tested in CEM-SS cells infected with HIV-1. CEM-SS cells were passaged in T-75 flasks in RPMI 1640 medium supplemented with 10% heat inactivated fetal bovine serum, 2 mmol/L L-glutamine, 100 U/mL penicillin and 100 flg/mL streptomycin prior to use in the antiviral assay. On the day preceding the assay, the cells were split 1:2 to assure they were in an exponential growth phase at the time of infection. Total cell and viability quantification was performed using a hemocytometer and Trypan Blue dye exclusion. Cell viability was greater than 95% for the cells to be utilized in the assay. The cells were resuspended at 5×10^4 cells per mL in tissue culture medium and added to the drug-containing microtiter plates in a volume of 50 μL.
The virus used for the assay was the lymphocyte-tropic virus strain HIV-IRF. The virus was obtained from the NIH AIDS Research and Reference Reagent Program and stock virus pools were produced in CEM-SS cells. A pre-titered aliquot of virus was removed from the freezer (−80° C.) and allowed to thaw slowly to room temperature in a biological safety cabinet. Virus was resuspended and diluted into tissue culture medium such that the amount of virus added to each well in a volume of 50 μL was the amount determined to yield 85 to 95% cell killing at 6 days post-infection.
Each plate contains cell control wells (cells only), virus control wells (cells plus virus), compound toxicity wells (cells plus compound only), compound colorimetric control wells (compound only) as well as experimental wells (compound plus cells plus virus). Samples were tested in triplicate with eleven half-log dilutions per compound starting at 0.1 μM of compound. Compounds 104, 120 and 122 were tested, as was atazanavir and AZT. […]
Following incubation at 37° C. in a 5% CO2 incubator, the test plates were stained with the tetrazolium dye XTT (2,3-bis(2-methoxy-4-nitro-5sulfophenyl)-5-[(phenylamino)carbonyl]-2H-tetrazolium hydroxide). XTT-tetrazolium was metabolized by the mitochondrial enzymes of metabolically active cells to a soluble formazan product, allowing rapid quantitative analysis of the inhibition of HIV induced cell killing by anti-HIV test substances. XTT solution was prepared daily as a stock of 1 mg/mL in RPMI 1640. Phenazine methosulfate (PMS) solution was prepared at 0.15 mg/mL in PBS and stored in the dark at −20° C. XTT/PMS stock was prepared immediately before use by adding 40 μL of PMS per mL of XTT solution. Fifty microliters of XTT/PMS was added to each well of the plate and the plate was reincubated for 4 hours at 37° C. Plates were sealed with adhesive plate sealers and shaken gently or inverted several times to mix the soluble formazan product and the plate was read spectrophotometrically at 450/650 nm with a Molecular Devices Vmax plate reader.
Raw data was collected from the Softmax Pro 4.6 software and imported into a Microsoft Excel 2003 spreadsheet for analysis by linear curve fit calculations.

[3] = Human immunodeficiency virus 1, CEM-SS, +0.5 mg/mL AAGP
[4] = Human immunodeficiency virus 1, CEM-SS, +10 mg/mL HAS
[5] = Human immunodeficiency virus 1, CEM-SS, +AAGP + HSA
[6] = Human immunodeficiency virus 1, CEM-SS, No Serum Protein Added (cell culture medium)

`COC(=O)N[C@H](C(=O)N[C@@H](Cc1ccccc1)[C@@H](O)CN(Cc1ccc(-c2ccccn2)cc1)NC(=O)[C@@H](NC(=O)OC)C(C)(C)C)C(C)(C)C` [Atazanavir, atazanavir, reference compound] gave an AUC ([1]; intravenous co-dosing) of 475 ± 15.9 ng·h/mL, a half-life ([1]; intravenous co-dosing) of 13.8 ± 0.6 min and an AUC ([1]; oral co-dosing) of 86 ± 51.2 ng·h/mL. For the same molecule, the Cmax ([1]; oral co-dosing) was 109 ± 67.2 ng/mL, the half-life ([1]; oral co-dosing) was 19.2 ± 3.6 min and the “concentration detected intact in urine” value ([2]; chimpanzee, in vivo, iv, 24 h) was 1790 ng/mL. For the same molecule, the concentration at 24 h ([2]; chimpanzee, in vivo, iv) was 2000 ng/mL, the “concentration detected intact in urine” value ([2]; chimpanzee, in vivo, po, 24 h) was 516 ng/mL and the concentration at 24 h ([2]; chimpanzee, in vivo, po) was 569 ng/mL. The EC50 (HIV-1RF; [3]) was 4 nM, the EC50 (HIV-1RF; [4]) was 4 nM and the EC50 (HIV-1RF; [5]) was 8 nM. The EC50 (HIV-1RF; [6]) was 1 nM.
For `[2H]C([2H])([2H])OC(=O)N[C@H](C(=O)N[C@@H](Cc1ccccc1)[C@@H](O)CN(Cc1ccc(-c2ccccn2)cc1)NC(=O)[C@@H](NC(=O)OC([2H])([2H])[2H])C(C([2H])([2H])[2H])(C([2H])([2H])[2H])C([2H])([2H])[2H])C(C([2H])([2H])[2H])(C([2H])([2H])[2H])C([2H])([2H])[2H]` [Compound 122, 1,14-Di(methyl-d3)(3S,8S,9S,12S)-3,12-bis[(1,1-dimethylethyl)-d9]-8-hydroxy-4,11-dioxo-9-(phenylmethyl)-6-[[4-(2-pyridinyl)phenyl]methyl]-2,5,6,10,13-pentaazatetradecanedioate], the AUC ([1]; intravenous co-dosing) was 503 ± 25.1 ng·h/mL, the half-life ([1]; intravenous co-dosing) was 15 ± 1.2 min and the AUC ([1]; oral co-dosing) was 156 ± 70.6 ng·h/mL. The Cmax ([1]; oral co-dosing) was 183 ± 113 ng/mL, the half-life ([1]; oral co-dosing) was 27.6 ± 9.6 min and the “Ratio of urine concentration, compound:Atazanavir” value (“Ratio of urine concentration” for short) ([2]; chimp A242E, PO, 24 hours, Run A) was 2.25. For the same molecule, the “Ratio of urine concentration” value ([2]; chimp A336C, IV, 24 hours, Run A) was 1.82, the “Ratio of urine concentration” value ([2]; chimpanzee, in vivo, iv, 24 h) was 1.57 and the “concentration detected intact in urine” value ([2]; chimpanzee, in vivo, iv, 24 h) was 3250 ng/mL. The concentration at 24 h ([2]; chimpanzee, in vivo, iv) was 3130 ng/mL, the “Ratio of urine concentration” value ([2]; chimpanzee, in vivo, po, 24 h) was 2.29 and the “concentration detected intact in urine” value ([2]; chimpanzee, in vivo, po, 24 h) was 1180 ng/mL. The concentration at 24 h ([2]; chimpanzee, in vivo, po) was 1280 ng/mL, the “fold less potent in the presence of HSA than in cell culture medium alone” value (HIV-1RF; 10 mg/mL HSA versus cell culture medium) was “two- to greater than three-fold less potent” and the EC50 (HIV-1RF; +10 mg/mL HAS) was 0.8 nM. The EC50 (HIV-1RF; [3]) was 2 nM, the EC50 (HIV-1RF; [4]) was 0.9 nM and the EC50 (HIV-1RF; [5]) was 6 nM. The EC50 (HIV-1RF; [6]) was < 0.4 nM and the EC50 (HIV-1RF; No Serum Protein Added (cell culture medium)) was 0.4 nM.
